From US10383831B2, “2,4,6-trialkoxystryl aryl sulfones, sulfonamides and carboxamides, and methods of preparation and use” (Temple University—Of The Commonwealth System Of Higher …, priority 2015, dated 2019)

Experiments:
Type in all cases: cell-based
[1] = test system: T-24; assay: Cytotoxicity assay (viable cell count, trypan blue), T-24; conditions: T-24, Bladder; 96 hours continuous treatment
Procedure: (§1) Cells of the cell lines listed in Table 18 (1×10^5) were plated into 6-well dishes. Twenty-four hours later, the compound of Example 1, i.e., (Z)-ethyl 3-((2-methoxy-5-(((E)-2,4,6-trimethoxystyrylsulfonyl)methyl) phenyl)amino)acrylate, or the compound of Comparative Example 1, i.e., sodium (E)-2-(5-((2,4,6-trimethoxystyrylsulfonyl)methyl)-2-methoxyphenylamino) acetate (rigosertib) was added at different concentrations over a 4 log dilution (0.001 to 10 μM). The total number of viable cells was determined after 96 hours of continuous treatment by staining with trypan blue and counting the number of non-staining cells (viable) remaining in each well using a hemacytometer. The percentage of viable cells remaining was calculated as follows: # viable cells (compound treated)/# viable cells (DMSO treated)*100. The GI50 (the concentration of drug resulting in 50% net loss of growth inhibition) was determined.

[2] = test system: WM1617; assay: Cytotoxicity assay (viable cell count, trypan blue), WM1617; conditions: WM1617, Melanoma; 96 hours continuous treatment
Procedure: as §1

[3] = test system: MOLT-4; assay: Cytotoxicity assay (viable cell count, trypan blue), MOLT-4; conditions: MOLT-4, T-Cell Lymphoma; 96 hours continuous treatment
Procedure: as §1

[4] = test system: GRANTA-519; assay: Cytotoxicity assay (viable cell count, trypan blue), GRANTA-519; conditions: GRANTA-519, Mantle Cell Lymphoma; 96 hours continuous treatment
Procedure: as §1

[5] = test system: 2008; assay: Cytotoxicity assay (viable cell count, trypan blue), 2008; conditions: 2008, Ovarian; 96 hours continuous treatment
Procedure: as §1

[6] = test system: Z1385; assay: Cytotoxicity assay (viable cell count, trypan blue), Z1385; conditions: Z1385, Mantle Cell Lymphoma; 96 hours continuous treatment
Procedure: as §1

[7] = test system: A549; assay: Cytotoxicity assay (viable cell count, trypan blue), A549; conditions: A549, Non-Small Cell Lung Carcinoma; 96 hours continuous treatment
Procedure: as §1

[8] = test system: Caov-3; assay: Cytotoxicity assay (viable cell count, trypan blue), Caov-3; conditions: Caov-3, Ovarian; 96 hours continuous treatment
Procedure: as §1

[9] = test system: MIA-PaCa-2; assay: Cytotoxicity assay (viable cell count, trypan blue), MIA-PaCa-2; conditions: MIA-PaCa-2, Pancreatic; 96 hours continuous treatment
Procedure: as §1

[10] = test system: UM-UC-3; assay: Cytotoxicity assay (viable cell count, trypan blue), UM-UC-3; conditions: UM-UC-3, Bladder; 96 hours continuous treatment
Procedure: as §1

[11] = test system: 5367; assay: Cytotoxicity assay (viable cell count, trypan blue), 5367; conditions: 5367, Bladder; 96 hours continuous treatment
Procedure: as §1

[12] = test system: HCT-15; assay: Cytotoxicity assay (viable cell count, trypan blue), HCT-15; conditions: HCT-15, Colo-Rectal; 96 hours continuous treatment
Procedure: as §1

[13] = test system: MDA-MB-231; assay: Cytotoxicity assay (viable cell count, trypan blue), MDA-MB-231; conditions: MDA-MB-231, Breast; 96 hours continuous treatment
Procedure: as §1

[14] = test system: CEM; assay: Cytotoxicity assay (viable cell count, trypan blue), CEM; conditions: T-Cell Lymphoma, 96 hours continuous treatment
Procedure: as §1

[15] = test system: HCT-116; assay: Cytotoxicity assay (viable cell count, trypan blue), HCT-116; conditions: HCT-116, Colo-Rectal; 96 hours continuous treatment
Procedure: as §1

[16] = test system: K562; assay: Cytotoxicity assay (viable cell count, trypan blue), K562; conditions: K562, Chronic Myelogenous Leukemia; 96 hours continuous treatment
Procedure: as §1

[17] = test system: HT-29; assay: Cytotoxicity assay (viable cell count, trypan blue), HT-29; conditions: HT-29, Colo-Rectal; 96 hours continuous treatment
Procedure: as §1

[18] = test system: H1299; assay: Cytotoxicity assay (viable cell count, trypan blue), H1299; conditions: H1299, Non-Small Cell Lung Carcinoma; 96 hours continuous treatment
Procedure: as §1

[19] = test system: PC-3; assay: Cytotoxicity assay (viable cell count, trypan blue), PC-3; conditions: PC-3, Prostate; 96 hours continuous treatment
Procedure: as §1

[20] = test system: DU145; assay: Cytotoxicity assay (viable cell count, trypan blue), DU145; conditions: DU145, Prostate; 96 hours continuous treatment
Procedure: as §1

[21] = test system: DAUDI; assay: Cytotoxicity assay (viable cell count, trypan blue), DAUDI; conditions: B-Cell Lymphoma, 96 hours continuous treatment
Procedure: as §1

[22] = test system: RS4; 11; assay: Cytotoxicity assay (viable cell count, trypan blue), RS4; 11; conditions: 11, ALL-B-Cell Precursor, 96 hours continuous treatment
Procedure: as §1

[23] = test system: N417; assay: Cytotoxicity assay (viable cell count, trypan blue), N417; conditions: N417, Small Cell Lung Carcinoma; 96 hours continuous treatment
Procedure: as §1

[24] = test system: tumor cell lines; assay: Cytotoxicity assay, comparison across the cell lines listed in Table 18; conditions: across a wide range of tumor cell lines
Procedure: as §1

[25] = test system: DU145 (prostate cancer); assay: Cytotoxicity assay, DU145 tumor cells; conditions: Homo sapiens, DU-145, 96 hours treatment
Procedure: (§2) The effect of the compounds of the invention on tumor cells was determined by the assay described by Latham et al., Oncogene 12:827-837 (1996). Tumor cells K562 (chronic myelogenous leukaemia) or DU145 (prostate cancer) were plated in 12-well dishes at a cell density of 2.5×10^4 cells well. The plated cells were treated 24 hours later with a compound of the invention dissolved in DMSO at multiple concentrations ranging from 0.001 to 10 μM. The plates were examined 96 hours later under an inverted microscope, Olympus CK-2 using a 10× objective, and compound activity was noted by physical observation. When necessary, the total number of viable cells was determined by trypsinizing the wells and counting the number of viable cells, as determined by trypan blue exclusion, using a hemacytometer.

[26] = test system: K562 (chronic myelogenous leukaemia); assay: Cytotoxicity assay, K562 tumor cells; conditions: Homo sapiens, 96 hours treatment
Procedure: as §2

With `COc1cc(OC)c(/C=C/S(=O)(=O)Cc2ccc(OC)c(NCC(=O)O)c2)c(OC)c1` [Comparative Example 1, Sodium (E)-2-(5-((2,4,6-trimethoxystyrylsulfonyl)methyl)-2-methoxyphenylamino) acetate, reference compound] the GI50 [1] was 70 nM, the GI50 [2] was 300 nM and the GI50 [3] was 40 nM. It also gave a GI50 [4] of 40 nM, a GI50 [5] of 100 nM and a GI50 [6] of 40 nM. For the same compound, the GI50 [7] was 75 nM, the GI50 [8] was 150 nM and the GI50 [9] was 150 nM. For the same compound, the GI50 [10] was 50 nM, the GI50 [11] was 100 nM and the GI50 [12] was 200 nM. The GI50 [13] was 90 nM, the GI50 [14] was 40 nM and the GI50 [15] was 100 nM. The GI50 [16] was 120 nM, the GI50 [17] was 250 nM and the GI50 [18] was 200 nM. For the same compound, the GI50 [19] was 75 nM, the GI50 [20] was 150 nM and the GI50 [21] was 75 nM. The GI50 [22] was 75 nM and the GI50 [23] was 100 nM.

`CCOC(=O)/C=C\Nc1cc(CS(=O)(=O)/C=C/c2c(OC)cc(OC)cc2OC)ccc1OC` [(Z)-ethyl 3-((2-methoxy-5-(((E)-2,4,6-trimethoxystyrylsulfonyl)methyl)phenyl)amino)acrylate] was tested, and the “fold more cytotoxic than Rigosertib” value [24] was 10-100 fold.

`C=CC(=O)Nc1cc(CS(=O)(=O)/C=C/c2c(OC)cc(OC)cc2OC)ccc1OC` [Ex. 201, (E)-N-(2-methoxy-5-(((2,4,6-trimethoxystyryl)sulfonyl)methyl)phenyl)acrylamide] showed an IC50 [25] of 0.75 µM and an IC50 [26] of 0.75 µM.

With `COc1ccc(C(=O)/C=C\Nc2cc(CS(=O)(=O)/C=C/c3c(OC)cc(OC)cc3OC)ccc2OC)cc1` [Ex. 4, (Z)-1-(4-methoxyphenyl)-3-((2-methoxy-5-(((E)-2,4,6-trimethoxystyrylsulfonyl)methyl)phenyl)amino)prop-2-en-1-one] the IC50 [25] was 0.05 µM and the IC50 [26] was 0.05 µM.

Work on `C#CCN(CC#C)c1cc(CS(=O)(=O)/C=C/c2c(OC)cc(OC)cc2OC)ccc1OC` [Ex. 161, (E)-2-methoxy-N,N-di(prop-2-yn-1-yl)-5-(((2,4,6-trimethoxystyryl)sulfonyl)-methyl)aniline] yielded an IC50 [25] of 2.5 µM and an IC50 [26] of 2.5 µM.

In the case of `COc1cc(OC)c(/C=C/S(=O)(=O)Cc2ccc(OC)c(N/C=C\C(=O)c3cc(OC)c(OC)c(OC)c3Cl)c2)c(OC)c1` [Ex. 7, (Z)-1-(2-chloro-3,4,5-trimethoxyphenyl)-3-((2-methoxy-5-(((E)-2,4,6-trimethoxystyrylsulfonyl)methyl)phenyl)amino)prop-2-en-1-one], the IC50 [25] is reported as 0.05 µM and the IC50 [26] is reported as 0.05 µM.

`CCOC(=O)/C=C/CNc1cc(CS(=O)(=O)/C=C/c2c(OC)cc(OC)cc2OC)ccc1OC` [Ex. 181, (E)-Ethyl 4-((2-methoxy-5-(((E)-2,4,6-trimethoxystyrylsulfonyl)methyl)phenyl)amino)but-2-enoate] showed an IC50 [25] of 0.25 µM and an IC50 [26] of 0.25 µM.

`CCOC(=O)C(=CNc1cc(CS(=O)(=O)/C=C/c2c(OC)cc(OC)cc2OC)ccc1OC)C(=O)OCC` [Ex. 191, (E)-diethyl-2-(((2-methoxy-5-(((2,4,6-trimethoxystyryl)sulfonyl)methyl)phenyl)-amino)methylene)malonate] showed an IC50 [25] of 2 µM and an IC50 [26] of 2 µM.

Compound `COC(=O)/C=C\Nc1cc(CS(=O)(=O)/C=C/c2c(OC)cc(OC)cc2OC)ccc1OC` [Ex. 3, (Z)-methyl 3-((2-methoxy-5-(((E)-2,4,6-trimethoxystyrylsulfonyl)methyl)phenyl)amino) acrylate] has an IC50 [25] of 0.004 µM and an IC50 [26] of 0.004 µM.

`COC(=O)/C=C\C(=O)Nc1cc(CS(=O)(=O)/C=C/c2c(OC)cc(OC)cc2OC)ccc1OC` [Ex. 176, (Z)-methyl 4-((2-methoxy-5-(((E)-2,4,6-trimethoxystyrylsulfonyl)methyl)phenyl)amino)-4-oxobut-2-enoate] gave an IC50 [25] of 2 µM and an IC50 [26] of 0.25 µM.

Compound `COc1cc(OC)c(/C=C/S(=O)(=O)Cc2ccc(OC)c(N/C=C\C(C)=O)c2)c(OC)c1` [Ex. 2, (Z)-4-((2-Methoxy-5-(((E)-2,4,6-trimethoxystyrylsulfonyl)methyl)phenyl)amino)but-3-en-2-one] has an IC50 [25] of 0.1 µM and an IC50 [26] of 0.1 µM.

Work on `COc1cc(OC)c(/C=C/S(=O)(=O)Cc2ccc(OC)c(N/C=C\C(=O)c3cc(OC)c(OC)c(OC)c3Br)c2)c(OC)c1` [Ex. 8, (Z)-1-(2-bromo-3,4,5-trimethoxyphenyl)-3-((2-methoxy-5-(((E)-2,4,6-trimethoxystyrylsulfonyl)methyl)phenyl)amino)prop-2-en-1-one] yielded an IC50 [25] of 0.075 µM and an IC50 [26] of 0.075 µM.

For `COc1cc(OC)c(/C=C/S(=O)(=O)Cc2ccc(OC)c(NC(=O)/C=C\C(=O)O)c2)c(OC)c1` [Ex. 171, (Z)-4-((2-methoxy-5-(((E)-2,4,6-trimethoxystyrylsulfonyl)methyl)phenyl)amino)-4-oxobut-2-enoic acid], the IC50 [25] was 2 µM and the IC50 [26] was 2 µM.

`COc1cc(OC)c(/C=C/S(=O)(=O)Cc2ccc(OC)c(NC(=O)/C=C/C(=O)O)c2)c(OC)c1` [Ex. 186, (E)-4-((2-methoxy-5-(((E)-2,4,6-trimethoxystyrylsulfonyl)methyl)phenyl)amino)-4-oxobut-2-enoic acid] was tested, and the IC50 [25] was 2 µM and the IC50 [26] was 2 µM.

Compound `COc1cc(OC)c(/C=C/S(=O)(=O)Cc2ccc(OC)c(N/C=C\C(=O)c3cc(OC)c(OC)c(OC)c3)c2)c(OC)c1` [Ex. 5, (Z)-1-(3,4,5-trimethoxyphenyl)-3-((2-methoxy-5-(((E)-2,4,6-trimethoxystyrylsulfonyl)methyl)phenyl)amino) prop-2-en-1-one] has an IC50 [25] of 0.009 µM.
